Like-named read-outs stand apart in the source and are kept apart here.
Assays:
CFTR^+/+ epithelia = experiment: Short-circuit current (Isc) response to increasing cAMP agonist concentrations, Ussing chambers, wild-type epithelia; type: cell-based, pig
Description: (§1) These studies were done under conditions of maximal CFTR stimulation. Therefore, we also examined the response to increasing concentrations of forskolin and IBMX (at a fixed ratio of forskolin:IBMX of 1:10) (FIG. 33F,G). The EC50 for CFTR^+/+ epithelia was […]. In contrast, the EC50 for forskolin in CFTR^ΔF508/ΔF508 epithelia was 0.60±0.19
(§2) Because forskolin and IBMX might generate different cellular cAMP concentrations in CFTR^ΔF508/ΔF508 and CFTR^+/+ epithelia, we repeated the experiments with 8-CPT-cAMP, a membrane-permeable cAMP analog (FIG. 33H,I).
(§3) Epithelial tissues were excised from the nasal turbinate and septum, and from trachea through 2nd generation bronchi immediately after animals were euthanized. Tissues and cultured epithelia were studied in modified Ussing chambers. Epithelia were bathed on both surfaces with solution containing (mM): 135 NaCl, 2.4 K2HPO4, 0.6 KH2PO4, 1.2 CaCl2, 1.2 MgCl2, 10 dextrose, 5 HEPES, pH 7.4, at 37° C. and gassed with compressed air. Na-gluconate was substituted for NaCl in […] solutions. Transepithelial voltage (Vt) was maintained at 0 mV to measure short-circuit current (Isc). Transepithelial electrical conductance (Gt) was measured by intermittently clamping Vt to +5 and/or −5 mV.
(§4) A standard protocol was the following. 1) Measurements under basal conditions. 2) 100 μM apical amiloride to inhibit ENaC Na^+ channels. […]

[1] = test system: CFTR^ΔF508/ΔF508 epithelia; experiment: Short-circuit current (Isc) response to increasing cAMP agonist concentrations, Ussing chambers, ΔF508 epithelia; type: cell-based, pig
Description: as §1, §2, §3, §4

nasal epithelia = experiment: In vivo nasal transepithelial voltage (Vt) in newborn piglets; design: species or system pig; conditions: sequential perfusion, amiloride 100 μM, ATP 100 μM, GlyH-101 100 μM
Description: The transepithelial voltage (Vt) across the nasal epithelium was measured using previously described methods (Zabner et al., J. Clin. Invest. 97:1504, 1996; Standaert et al., Pediatr. Pulmonol. 37:385, 2004) under propofol anesthesia with the animal spontaneously breathing. The reference electrode was a small Ringer's solution-filled catheter inserted into the leg muscle (25 g needle). The exploring electrode was a 6 french foley catheter filled with Ringer's solution (148 mM NaCl, 2.4 mM KH2PO4, 0.4 mM K2PO4, 2.25 mM CaCl2, 1.2 mM MgCl2) inserted 4 cm into the nasal cavity, and the nasal mucosa was perfused at a rate of 5 ml/min using Ringer's solution to obtain baseline Vt. Subsequent perfusion solutions included: Ringer's solution containing 100 μM amiloride; Cl^−-free Ringer's solution containing gluconate substituted for CF plus amiloride; Cl^−-free Ringer's solution containing amiloride plus 10 μM isoproterenol; Cl^−-free Ringer's solution containing amiloride, isoproterenol, plus 100 μM ATP; Cl^−-free Ringer's solution containing amiloride, isoproterenol, ATP, plus 100 μM GlyH-101. Voltage was measured with a voltmeter connected to a strip chart recorder. Each solution was perfused for 3-5 minutes. Following completion of the measurements, the epithelium was disrupted by brushing and Vt measured again to determine the zero value of Vt.

[2] = test system: excised trachea epithelia; experiment: Electrophysiology of freshly excised tracheal epithelia in Ussing chambers; type: cell-based, pig; conditions: 100 μM apical
Description: Values of transepithelial electrical conductance (Gt) were large, probably because of “edge damage” associated with clamping epithelia in Ussing chambers (Helman et al., Am. J. Physiol. Cell Physiol. 225(4):972-977, 1973) (compare with cultured epithelia in FIG. 31, 32).
as §3
A standard protocol was the following. 1) Measurements under basal conditions. 2) 100 μM apical amiloride to inhibit ENaC Na^+ channels. 3) 100 μM apical DIDS (4,4-diisothiocyano stilbene-2,2-disulfonic acid) to inhibit most anion channels other than CFTR. 4) 10 μM forskolin and 100 μM IBMX ([…]) to increase cellular levels of cAMP leading to phosphorylation and activation of CFTR. […]

Work on `Nc1ncnc2c1nc(Sc1ccc(Cl)cc1)n2[C@@H]1O[C@@H]2COP(=O)(O)O[C@H]2[C@H]1O` [8-CPT-cAMP] yielded an EC50 (CFTR^+/+ epithelia; wild-type epithelia, read-out: EC50 (change in Isc with increasing 8-CPT-cAMP)) of 8 ± 1.3 µM and an EC50 ([1]; read-out: EC50 (change in Isc with increasing 8-CPT-cAMP)) of 65.2 ± 17.3 µM.
`Nc1ncnc2c1ncn2[C@@H]1O[C@H](COP(=O)(O)OP(=O)(O)OP(=O)(O)O)[C@@H](O)[C@H]1O` [ATP] was tested, and the “Effect on nasal transepithelial voltage (Vt)” value (shortened to “Effect … (Vt)”) (nasal epithelia) was “further hyperpolarized Vt”.
In the case of `N=C(N)NC(=O)c1nc(Cl)c(N)nc1N` [Amiloride, amiloride], the “Effect … (Vt)” value (nasal epithelia) is reported as “reduced Vt in all genotypes”, the “Effect on transepithelial conductance Gt (ΔGtamiloride)” value ([2]; CFTR^ΔF508/ΔF508 vs CFTR^+/+) is reported as “reduced Gt (ΔGtamiloride) to a similar extent” and the “Effect on Vt and Isc (ΔVtamiloride, ΔIscamiloride)” value ([2]; CFTR^ΔF508/ΔF508 vs wild-type) is reported as “reduced Vt (ΔVtamiloride) and Isc (ΔIscamiloride) in CFTR^ΔF508/ΔF508 more than in wild-type epithelia”.
With `O=C(CNc1ccc2ccccc2c1)N/N=C/c1cc(Br)c(O)c(Br)c1O` [GlyH-101] the “Effect … (Vt)” value (nasal epithelia) was “depolarized Vt in controls, but not CFTR−/− piglets”.
`C=C[C@@]1(C)CC(=O)[C@]2(O)[C@@]3(C)[C@@H](O)CCC(C)(C)[C@@H]3[C@H](O)[C@H](OC(C)=O)[C@@]2(C)O1` [forskolin] showed an EC50 (CFTR^+/+ epithelia; Sus scrofa, CFTR^+/+ epithelia, increasing forskolin and IBMX at fixed ratio forskolin:IBMX 1:10, read-out: EC50 for forskolin (change in Isc)) of 0.07 ± 0.01 µM and an EC50 ([1]; Sus scrofa, increasing forskolin and IBMX at fixed ratio forskolin:IBMX 1:10, read-out: EC50 for forskolin (change in Isc)) of 0.6 ± 0.19 µM.

Reference: patent US8912386B2, “Transgenic pig model of cystic fibrosis” (University of Iowa Research Foundation, priority 2007, dated 2014)
